Several values for one entry are separate records, joined by “and”; a condition that tells them apart may be missing. Equal entries are not always repeated. Entries after “also recorded” stand apart in the source; their conditions may differ.
Key:
m-calpain = biological target: T1, m-calpain (Rattus norvegicus, UniProt Q07009); test: Calpain inhibition in whole PC12 cells, m-calpain activation; type: cell-based; details: calcium 1.4 mM, 10 μM ionomycin
T1 construct: endogenous in cells; host or cells: whole PC12 cells
T1 sequence (Q07009 20-700 limits assumed): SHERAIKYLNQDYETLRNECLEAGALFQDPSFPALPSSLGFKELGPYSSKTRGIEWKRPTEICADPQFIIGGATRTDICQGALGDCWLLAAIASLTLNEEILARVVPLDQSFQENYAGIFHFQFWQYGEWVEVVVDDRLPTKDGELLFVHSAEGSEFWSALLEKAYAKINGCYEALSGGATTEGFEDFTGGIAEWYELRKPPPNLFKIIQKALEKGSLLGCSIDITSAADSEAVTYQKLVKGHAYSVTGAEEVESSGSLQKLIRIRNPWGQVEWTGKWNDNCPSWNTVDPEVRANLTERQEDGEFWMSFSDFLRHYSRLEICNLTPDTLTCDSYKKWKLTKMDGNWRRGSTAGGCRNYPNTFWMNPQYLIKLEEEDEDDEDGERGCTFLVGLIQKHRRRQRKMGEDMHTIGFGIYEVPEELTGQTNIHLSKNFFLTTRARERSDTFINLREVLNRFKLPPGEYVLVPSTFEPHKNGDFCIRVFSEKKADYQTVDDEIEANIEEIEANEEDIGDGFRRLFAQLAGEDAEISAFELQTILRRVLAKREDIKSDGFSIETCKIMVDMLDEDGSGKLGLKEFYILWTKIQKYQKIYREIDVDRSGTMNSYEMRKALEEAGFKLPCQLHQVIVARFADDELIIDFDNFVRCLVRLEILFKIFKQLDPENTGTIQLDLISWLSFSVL
T1 sequence (Q64537 1-270 partner): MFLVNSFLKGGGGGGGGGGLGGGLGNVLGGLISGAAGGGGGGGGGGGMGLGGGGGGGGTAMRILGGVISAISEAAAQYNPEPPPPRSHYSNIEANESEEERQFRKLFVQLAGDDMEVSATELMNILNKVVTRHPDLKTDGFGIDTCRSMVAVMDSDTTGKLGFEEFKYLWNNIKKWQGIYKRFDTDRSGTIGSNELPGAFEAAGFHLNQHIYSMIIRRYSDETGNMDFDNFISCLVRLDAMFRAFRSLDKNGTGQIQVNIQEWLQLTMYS
Experimental: Whole cell enzymatic activity was measured as previously described in DePetrillo, Neurochem. 68:1863-69 (1997). The same four inhibitor concentrations were tested, but the substrate concentration was held at 80 μM.

[1] = system: calpain (μ-calpain and m-calpain isoforms); test: Calpain activity in PC12 cell extracts, fluorescence assay with N-succinyl-leu-tyr 7-amino-4-methylcoumarin; type: biochemical
Experimental: PC12 cells were grown in an RPMI solution containing 5% fetal bovine serum, 10% heat-inactivated horse serum, and 50 mg/L gentamicin. Cells were isolated by centrifulgation, and cell pellets suspended in 1 mL of extract buffer, containing 30 mM TRIS at pH 6.8, 15 mMEDTA, 5 mMEGTA, 1 mMDTT, […], 0.1 mg/mL AEBSF, 14.4 mM 2-mercaptoethanol, and 1% triton x-100. After 1 cycle of freeze-thaw, the cell extract was centrifuged at 4° C. at 14,000 g for 20 minutes. The supernatant was removed and assayed.
Calpain activity was measuring using N-succinyl-leu-tyr 7-amino-4-methylcoumarin as the specific peptide substrate. Fluorescence was measured in a 96-well microplate format (Dyrex Technologies (UK), Middlesex) with a 380 nm excitation filter and 480 nm emission filter. […]
Data consisting of relative fluorescence units (RFU) was obtained every two minutes for 1 hour. Data was analyzed based on initial rate, defined as the slope of the increase of the obtained RFU value up to a maximum length of 10 minutes. […]
Model sufficiency was evaluated based on whether the objective function converged with a tolerance factor of 1×10^−10, the overall F-value for the regression, and the magnitude and sign of the parameters obtained after convergence. […]

[2] = system: calpain-mediated spectrin breakdown; test: Spectrin breakdown in PC12 cells, western blot with anti-spectrin antibodies; type: cell-based; details: 0.1 μM, 2 mM Ca2+ fifteen minutes, 10 μM ionomycin
Source text: A western blot of the cell extracts was probed with anti-spectrin antibodies (commercially available from Chemicon International, Inc., of Temecula, Calif.). Undigested spectrin appeared as a band at approximately 240 kD. The spectrin breakdown products appeared at approximately 150 kD, and followed a ladder pattern associated with limited and specific proteolysis.

[3] = system: hippocampal primary neurons
Experimental: Hippocampal primary neuron cell cultures were prepared according to the methods described by Mattson, et al., Methods Cell Biol., 46:187-216 (1995). Hippocampi were obtained from rat embryos and incubated for 15 minutes in a solution of 2 mg/ml trypsin in Hank's Balanced Salt Solution (HBSS) containing 2.4 g/l N-[2-hydroxyethyl]piperazine-N′-[2-ethanesulfonic acid] (HEPES) and 10 mg/l gentamicin, pH 7.2 at a concentration of 2 hippocampi/ml. The hippocampi were then rinsed three times in 10 ml of HBSS and incubated for 5 min. in a solution of 1 mg trypsin inhibitor/ml of HBSS. Finally, the cells were rinsed three times with 10 ml of HBSS.
Cells were dissociated by trituration through the narrowed bore of a fire-polished Pasteur pipette and distributed to 35 mm polyethylenimine-coated plastic culture dishes containing 1 ml of MEM+. […]
Each of the cultures was photographed with phase-contrast inverted Zeiss microscope attached with a 35 mm camera at pre-treatment, 24 hours, and 48 hours after treatment at the same location marked by a scratched grid on the bottom of culture dish. […] Neuronal survival was quantified by counting the number of neurons on each of the photos. Neuronal viability was identified and determined by morphological criteria: viable neurons had phase-bright somas and intact processes while nonviable neurons had phase-dark, vacuolated somas, and fragmented neuritis. […]

## CC(C)c1nc(CN(C)C(=O)NC(C(=O)N[C@@H](Cc2ccccc2)CC(O)[C@H](Cc2ccccc2)NC(=O)OCc2cncs2)C(C)C)cs1 (relative stereo) [Ritonavir, 10-hydroxy-2-methyl-5-(1-methylethyl)-1-[2-(1-methylethyl)-4-thiazolyl]-3,6-dioxo-8,11-bis(phenylmethyl)-2,4,7,12-tetraazatridecan-13-oic acid, 5-thiazolylmethyl ester, [5S-(5R*,8R* 10R* 11R*)]]
m-calpain
  mode of inhibition: competitive inhibition
[1]; F-value 118.48, p≦0.00001
  mode of inhibition (best model fit): […]
[1]; competitive model, mean±standard error of the mean, aggregate of both calpain isoforms, read-out: inhibition constant Ki for calpain
  Ki: […]
[2]
  inhibition of spectrin breakdown: inhibit spectrin breakdown
[3]; 100 pM + HNE, no difference from control group
  level of cytoprotection: 100%
[3]; rat, 24 h, 10 μM, pH 7.2
  cell death: ~100%
